Values joined by “and” are separate entries in the source; they are usually repeats but may differ in a detail not shown here. Equal values may be shown once. Inconclusive results and toxic doses are left out. Numbered stars: 1 amine (or outer) side, 2 acyl side, 3 side chain; on linkers, the order of the positions; unused ones are H or OH. Bridge positions count the residues as written; N and C are the ends. Square brackets hold non-standard residues; d marks the D form. Peptide text beside a SMILES is read from it. I, II: the chains in the order shown. Actinocin(9to1) = Cc1c2oc3c(C)ccc(C(=O)[*:1])c3nc-2c(C(=O)[*:2])c(N)c1=O; NMeV = CN[CH](C(=O)O)C(C)C; Aze = O=C(O)[CH]1CCN1; Sar = CNCC(=O)O
Tested on: BDF1 mice, B16 melanoma ip, median survival T/C
Test: NCI In Vivo Anticancer Drug Screen. Data for tumor model B16 Melanoma (intraperitoneal) in B6D2F1 (BDF1) mice
Conditions: endpoint: median survival time, higher = longer survival
In short: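 Tumor-bearing mice received test compound or vehicle. Survival or tumor size was then measured in both groups. The treated-group figure was divided by the control-group figure.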

[1] = dose: 50.0 mg/kg/injection, schedule: Q01DX009 (ip), vehicle: Klucel (hydroxypropylcellulose) (HPC)
[2] = dose: 100.0 mg/kg/injection, schedule: Q01DX009 (ip), vehicle: Klucel (hydroxypropylcellulose) (HPC)
[3] = dose: 100.0 mg/kg/injection, schedule: Q01DX009 (ip), vehicle: saline with Tween-80
[4] = dose: 200.0 mg/kg/injection, schedule: Q01DX009 (ip), vehicle: saline with Tween-80
[5] = dose: 400.0 mg/kg/injection, schedule: Q01DX009 (ip), vehicle: saline with Tween-80
[6] = dose: 25.0 mg/kg/injection, schedule: Q01DX009 (ip), vehicle: Klucel (hydroxypropylcellulose) (HPC)
[7] = dose: 200.0 mg/kg/injection, schedule: Q01DX009 (ip), vehicle: Klucel (hydroxypropylcellulose) (HPC)
[8] = dose: 50.0 mg/kg/injection, schedule: Q01DX009 (ip), vehicle: saline with Tween-80
[9] = dose: 12.5 mg/kg/injection, schedule: Q04DX003 (ip), vehicle: saline
[10] = dose: 25.0 mg/kg/injection, schedule: Q04DX003 (ip), vehicle: saline
[11] = dose: 50.0 mg/kg/injection, schedule: Q04DX003 (ip), vehicle: saline
[12] = dose: 6.25 mg/kg/injection, schedule: Q01DX009 (ip), vehicle: saline with Tween-80
[13] = dose: 12.5 mg/kg/injection, schedule: Q01DX009 (ip), vehicle: saline with Tween-80
[14] = dose: 25.0 mg/kg/injection, schedule: Q01DX009 (ip), vehicle: saline with Tween-80
[15] = dose: 12.5 mg/kg/injection, schedule: Q01DX009 (ip), vehicle: saline
[16] = dose: 25.0 mg/kg/injection, schedule: Q01DX009 (ip), vehicle: saline
[17] = dose: 50.0 mg/kg/injection, schedule: Q01DX009 (ip), vehicle: saline
[18] = dose: 400.0 mg/kg/injection, schedule: Q01DX009 (ip), vehicle: Klucel (hydroxypropylcellulose) (HPC)

`Nc1c(Br)cc2c(c1Br)Cc1cc(Cl)ccc1-2` was tested, and the T/C (dose: 6.25 mg/kg/injection, schedule: Q01DX009 (ip), vehicle: other) was 108 % of control, the T/C (dose: 12.5 mg/kg/injection, schedule: Q01DX009 (ip), vehicle: other) was 96 % of control and the T/C (dose: 25.0 mg/kg/injection, schedule: Q01DX009 (ip), vehicle: other) was 96 % of control. The T/C [1] was 94 % of control, the T/C (dose: 50.0 mg/kg/injection, schedule: Q01DX009 (ip), vehicle: other) was 89 % of control and the T/C [2] was 107 % of control. For the same molecule, the T/C (dose: 100.0 mg/kg/injection, schedule: Q04DX003 (ip), vehicle: other) was 94 % of control and the T/C (dose: 200.0 mg/kg/injection, schedule: Q04DX003 (ip), vehicle: other) was 86 % of control.

In the case of `NC(Cc1ccc(O)cc1)C(=O)OCc1ccccc1` (stereo unspecified), the T/C [3] is reported as 102 % of control, the T/C [4] is reported as 114 % of control and the T/C [5] is reported as 98 % of control.

`CNC(=S)NCc1ccc(C(=O)NC(C)C)cc1` was tested, and the T/C [6] was 101 % of control, the T/C [1] was 99 % of control and the T/C [2] was 118 % of control. The T/C [7] was 118 % of control.

With `O=C(OC1COC(n2c(=O)oc3ccc(F)cc32)C(OC(=O)c2ccccc2)C1OC(=O)c1ccccc1)c1ccccc1` (stereo unspecified) the T/C [8] was 93 % of control, the T/C [2] was 89 % of control and the T/C [3] was 92 % of control. For the same molecule, the T/C [7] was 86 % of control, the T/C [4] was 107 % of control and the T/C [5] was 90 % of control.

For `C=CCOCC(O)CN(C)C1CCCCC1` (stereo unspecified), the T/C [9] was 121 % of control, the T/C [10] was 100 % of control and the T/C [11] was 100 % of control and 104 % of control.

In the case of `CN(C)CCCN=Cc1ccc(O)cc1O.CN(C)CCCN=Cc1ccc(O)cc1O.[Ni+2]`, the T/C [12] is reported as 95 % of control, the T/C [13] is reported as 95 % of control and the T/C (dose: 12.5 mg/kg/injection, schedule: Q04DX003 (ip), vehicle: saline with Tween-80) is reported as 117 % of control. The T/C [14] was 92 % of control and the T/C (dose: 25.0 mg/kg/injection, schedule: Q04DX003 (ip), vehicle: saline with Tween-80) was 86 % of control.

In the case of `CC(Cc1ccccc1)NC1CC2CCC1C2` (stereo unspecified), the T/C [15] is reported as 101 % of control, the T/C [16] is reported as 102 % of control and the T/C [17] is reported as 101 % of control.

In the case of `Cc1cc2ncn(CC(=O)O)c2cc1C`, the T/C [14] is reported as 95 % of control, the T/C [8] is reported as 97 % of control and the T/C [3] is reported as 97 % of control.

With `CCCCC(CC)C1OC(=O)C(C)O1` (stereo unspecified) the T/C (dose: 100.0 mg/kg/injection, schedule: Q04DX003 (ip), vehicle: Klucel (hydroxypropylcellulose) (HPC)) was 98 % of control and the T/C (dose: 200.0 mg/kg/injection, schedule: Q04DX003 (ip), vehicle: Klucel (hydroxypropylcellulose) (HPC)) was 100 % of control.

With `C/C=C(/C)N(C(C)=O)N(C(C)=O)c1ccc([N+](=O)[O-])cc1[N+](=O)[O-]` the T/C [2] was 100 % of control, the T/C [7] was 89 % of control and the T/C [18] was 89 % of control.

With `CCOCCc1ccccn1` the T/C [9] was 106 % of control, the T/C [10] was 100 % of control and the T/C [11] was 96 % of control.

With `NC(N)=NC1CCCC1` the T/C [15] was 97 % of control, the T/C [16] was 114 % of control and the T/C [17] was 98 % of control.

In the case of `Clc1nc2ccccc2nc1CI`, the T/C (dose: 0.04 mg/kg/injection, schedule: Q01DX009 (ip), vehicle: saline with Tween-80) is reported as 97 % of control, the T/C (dose: 0.08 mg/kg/injection, schedule: Q01DX009 (ip), vehicle: saline with Tween-80) is reported as 97 % of control and the T/C (dose: 0.15 mg/kg/injection, schedule: Q01DX009 (ip), vehicle: saline with Tween-80) is reported as 97 % of control. For the same molecule, the T/C (dose: 0.3 mg/kg/injection, schedule: Q01DX009 (ip), vehicle: saline with Tween-80) was 92 % of control, the T/C (dose: 0.31 mg/kg/injection, schedule: Q01DX009 (ip), vehicle: saline with Tween-80) was 94 % of control and the T/C (dose: 0.62 mg/kg/injection, schedule: Q01DX009 (ip), vehicle: saline with Tween-80) was 91 % of control. For the same molecule, the T/C (dose: 1.25 mg/kg/injection, schedule: Q01DX009 (ip), vehicle: saline with Tween-80) was 100 % of control, the T/C (dose: 2.5 mg/kg/injection, schedule: Q01DX009 (ip), vehicle: saline with Tween-80) was 97 % of control and the T/C (dose: 5.0 mg/kg/injection, schedule: Q01DX009 (ip), vehicle: saline with Tween-80) was 88 % of control.

`CC1=C/C(=N\NS(=O)(=O)c2ccc([N+](=O)[O-])cc2)CC(C)(C)C1` was tested, and the T/C [1] was 94 % of control, the T/C [2] was 93 % of control and the T/C [7] was 96 % of control. For the same molecule, the T/C [18] was 88 % of control.

For `Cc1c2oc3c(C)ccc(C(=O)NC4C(=O)NC(C(C)C)C(=O)N5CCC5C(=O)N(C)CC(=O)N(C)C(C(C)C)C(=O)OC4C)c3nc-2c(C(=O)NC2C(=O)NC(C(C)C)C(=O)N3CCC3C(=O)N(C)CC(=O)N(C)C(C(C)C)C(=O)OC2C)c(N)c1=O` (stereo unspecified) (I: TV[Aze][Sar][NMeV] / II: TV[Aze][Sar][NMeV]; ester I:1-I:C, II:1-II:C; linker I:N-II:N via Actinocin(9to1); configuration not given here), the T/C (dose: 0.3 mg/kg/injection, schedule: Q04DX003 (ip), vehicle: saline + alcohol) was 169 % of control, the T/C (dose: 0.45 mg/kg/injection, schedule: Q04DX003 (ip), vehicle: saline + alcohol) was 163 % of control and the T/C (dose: 100.0 micrograms/kg/injection, schedule: Q01DX009 (ip), vehicle: saline + alcohol) was 159 % of control. For the same molecule, the T/C (dose: 150.0 micrograms/kg/injection, schedule: Q01DX009 (ip), vehicle: saline + alcohol) was 161 % of control.

With `C=CCOc1cccc(OCC=C)c1C` the T/C [3] was 106 % of control and the T/C [4] was 97 % of control.

In the case of `CCN(CC)CCNc1ccc([N+](=O)[O-])cc1[N+](=O)[O-]`, the T/C [14] is reported as 100 % of control, the T/C [8] is reported as 113 % of control and the T/C (dose: 50.0 mg/kg/injection, schedule: Q04DX003 (ip), vehicle: saline with Tween-80) is reported as 102 % of control. The T/C [3] was 100 % of control and the T/C (dose: 100.0 mg/kg/injection, schedule: Q04DX003 (ip), vehicle: saline with Tween-80) was 100 % of control.

In the case of `CCOC(=O)N1C(=O)c2ccccc2C1=O`, the T/C [14] is reported as 94 % of control, the T/C [8] is reported as 94 % of control and the T/C [3] is reported as 86 % of control.

In the case of `C/C=C(/C(=O)NC(N)=O)C(C)C`, the T/C [6] is reported as 100 % of control, the T/C [1] is reported as 105 % of control and the T/C [2] is reported as 105 % of control. For the same molecule, the T/C [7] was 94 % of control and the T/C [18] was 97 % of control.

In the case of `CC(=O)[C@H]1CC[C@H]2[C@@H]3C[C@H](C)C4=CC(=O)CC[C@]4(C)[C@H]3C(=O)C[C@]12C`, the T/C [2] is reported as 107 % of control, the T/C [7] is reported as 92 % of control and the T/C [18] is reported as 94 % of control.

With `CCCCCCCCCCCCCCCCNS(=O)(=O)c1ccc(NN)cc1` the T/C (dose: 12.5 mg/kg/injection, schedule: Q01DX009 (ip), vehicle: Klucel (hydroxypropylcellulose) (HPC)) was 93 % of control, the T/C [6] was 96 % of control and the T/C [1] was 89 % of control and 90 % of control.

With `CC[C@@]1(O)C(=O)OCc2c1cc1n(c2=O)Cc2cc3cc(OC)ccc3nc2-1` the T/C (dose: 0.39 mg/kg/injection, schedule: Q01DX009 (ip), vehicle: other) was 157 % of control and the T/C (dose: 0.79 mg/kg/injection, schedule: Q01DX009 (ip), vehicle: other) was 174 % of control.

For `CCC(=O)c1ccc2c(c1)N(CCCN(C)C)c1ccccc1S2`, the T/C (dose: 3.12 mg/kg/injection, schedule: Q01DX009 (ip), vehicle: saline with Tween-80) was 96 % of control, the T/C [12] was 86 % of control and the T/C [13] was 96 % of control.

`c1cncc(C2OCCO2)c1` was tested, and the T/C [3] was 98 % of control, the T/C [4] was 89 % of control and the T/C [5] was 89 % of control.

With `CCN(C(=O)Nc1cccc2ccccc12)c1ccccc1` the T/C [2] was 102 % of control, the T/C [7] was 88 % of control and the T/C [18] was 91 % of control.

With `COc1ccc2c(c1O)-c1cccc3c1[C@@H](C2)N(CCCl)CC3` the T/C (dose: 4.0 mg/kg/injection, schedule: Q01DX009 (ip), vehicle: saline) was 91 % of control and 116 % of control, the T/C (dose: 8.0 mg/kg/injection, schedule: Q01DX009 (ip), vehicle: saline) was 97 % of control and 120 % of control and the T/C (dose: 16.0 mg/kg/injection, schedule: Q01DX009 (ip), vehicle: saline) was 97 % of control and 111 % of control.

For `COC(=O)c1cc2cc3c(c(O)c2c(=O)o1)OC1(Cc2c(O)c4c(c(O)c2O1)C(=O)C(OC)CC4=O)CC3O` (stereo unspecified), the T/C (dose: 3.13 mg/kg/injection, schedule: Q01DX009 (ip), vehicle: saline with Tween-80) was 91 % of control, the T/C [12] was 91 % of control and 93 % of control and the T/C [13] was 86 % of control. The T/C [14] was 86 % of control and 88 % of control.

`COc1cc2c(c3c1c(=O)c1ccccc1n3C)C=CC(C)(C)O2` was tested, and the T/C [14] was 102 % of control and the T/C [8] was 107 % of control.

In the case of `O=C1C(N2CC2)=C(N2CC2)C(=O)C(N2CC2)=C1N1CC1`, the T/C (dose: 10.0 micrograms/kg/injection, schedule: Q01DX009 (ip), vehicle: saline) is reported as 100 % of control and 118 % of control and the T/C (dose: 20.0 micrograms/kg/injection, schedule: Q01DX009 (ip), vehicle: saline) is reported as 120 % of control.
